In patent US20230285598A1, “SULFOXONIUM YLIDE DERIVATIVES AS PROBES FOR CYSTEINE PROTEASE” (Takeda Pharmaceutical Company Limited, priority 2018, published 2023):

Columns and labels:
cathepsin X [1] = target: T1, cathepsin X (Mus musculus, UniProt Q9WUU7); assay: Probe labeling of kidney lysates, in-gel fluorescence; format: biochemical; settings: 0.1-5 µM for 20 minutes
Experimental: issues were harvested from healthy mice and snap frozen. At the time of analysis, lysis buffer was added at 10x volume:weight, and tissues were sonicated on ice. Cleared lysates were labeled with the indicated probe and analyzed as above.
In Example 7, sulfoxonium ylide probes as prepared in accordance with Example 1 were tested in kidney lysates and the results compared to BMV109. The sulfoxonium ylide probes (and BMV109) were each added with increasing probe concentrations of 0.1 µM, 0.5 µM, 1 µM and 5 µM for 20 minutes.

cathepsin X [2] = target: T1, cathepsin X; assay: Probe labeling of living RAW264.7 cells, in-gel fluorescence; format: cell-based; design: protein lysates prepared from RAW264.7 cells; host or cells: RAW264.7; settings: Example 8; 0.1-5 µM for 2 hours
Experimental: AW cells or MDA-MB-231 ^HM cells were plated in 12-well plates. Where indicated, MDV-590 or vehicle was added at 10 µM from a 10 mM DMSO stock for overnight incubation. When the cell density reached 80%, the indicated probes were added at the indicated concentrations from a 1000x DMSO stock and allowed to incubate for the indicated time. Media was then removed and replaced with PBS. The cells were then scraped and transferred to tubes, and lysis and SDS-PAGE analysis were carried out as above, except skipping the probe addition step. […]
In Example 8, sulfoxonium ylide probes as prepared in accordance with Example 1 were applied to live RAW264.7 cells for two hours, in order to examine the potency and permeability of the sulfoxonium ylide probe series in living cells, and the results compared to BMV109.
The sulfoxonium ylide probes (and BMV109) were each added with increasing probe concentrations of 0.1 µM, 0.5 µM, 1 µM and 5 µM for 2 hours. […]

cathepsin X [3] = target: T1, cathepsin X; assay: Confocal microscopy of kidney cryosections after in vivo probe administration
Experimental: Kidney tissues from mice that received sCy5-Nle-SY (or vehicle control) above were fixed overnight in 4% paraformaldehyde in PBS followed by overnight cryoprotection in 30% sucrose. Tissues were embedded in OCT, frozen on dry ice, and sectioned at 10 µm. Immunostaining for cathepsin X was carried out according to standard protocols. In brief, sections were air dried, fixed in cold acetone for 10 minutes, air dried again, and then rehydrated in PBS. Sections were blocked in PBS containing 3% normal horse serum with 0.1% Triton X-100. Goat anti-cathepsin X was added at 1:100 in blocking buffer overnight at 4° C. Sections were then washed, and secondary antibody, donkey anti-goat-AlexaFluor594 was added at 1:500 for 1 hour at room temperature. Sections were stained with DAPI for 5 minutes, washed, and mounted with ProLong Diamond. Staining was analyzed using a Leica SP8 inverted confocal microscope.
Additionally, after in vivo probe administration, kidney cryosections from sCy5-Nle-SY-injected mice or no-probe control were prepared and analyzed by confocal microscopy for sCy5 fluorescence (red) or cathepsin X immunoreactivity (green) along with DAPI (blue) to visualize nuclei. […] Thus, sCy5-Nle-SY could be used to distinguish active cathepsin X relative to total cathepsin X in tissues after in vivo administration.

cathepsin X [4] = target: T1, cathepsin X; assay: Probe labeling of RAW264.7 cell lysates, SDS-PAGE in-gel fluorescence; format: biochemical; design: protein lysates prepared from RAW264.7 cells; host or cells: RAW264.7; settings: Example 6; 0.01-5 µM for 20 minutes
Experimental: ells were harvested by scraping, washed once with PBS, and resuspended in lysis buffer containing 50 mM citrate [pH 5.5], 0.5% CHAPS, 0.1% Triton X-100, and 4 mM DTT. Cells were incubated on ice for at least 10 minutes with intermittent vortexing followed by centrifugation ([…] at 4° C. or 5 minutes). Cleared supernatants were then transferred to a fresh tube and protein concentration was determined by BCA. Total protein (50 µg) was aliquoted into tubes in a final volume of 20 µl lysis buffer. Where indicated, JPM-OEt or MDV-590 were added from a 100x DMSO stock and incubated at 37° C. or 20 minutes prior to probe addition. The indicated concentration of probe was added from a 100x DMSO stock. Labeling was carried out at 37° C. or 20 minutes (unless otherwise indicated), and the reactions were quenched by the addition of 5x sample buffer (200 mM Tris-Cl [pH 6.8], 8% SDS, 0.04% bromophenol blue, 5% b-mercaptoethanol, and 40% glycerol). Samples were then boiled for five minutes and proteins were resolved on a 15% SDS-PAGE gel. The gels were scanned on a Typhoon 5 flatbed laser scanner at 633/670 nm excitation/emission to detect sCy5 fluorescence.
robe-labeled lysate from above (in sample buffer) was divided into input or pulldown (~50 µg total protein each). The input sample was stored at -20° C. The pulldown sample was diluted in 500 µl IP buffer (PBS [pH 7.4],[…], 1 mM EDTA). Goat anti-cathepsin X antibody (10 µl) was added along with 40 µl slurry of pre-washed Protein A/G agarose beads. Samples were rotated overnight at 4° C. Beads were then washed four times with IP buffer followed by a final wash in 0.9% NaCl. Beads were then resuspended in 2x sample buffer and boiled. The pulldown supernatants, alongside the input samples, were analysed by fluorescent SDS-PAGE as above.
In Example 3, the sulfoxonium ylide probe sCy5-Val-SY was incubated with protein lysates prepared from RAW264.7 cells, an immortalized mouse macrophage line that contains high levels of active cysteine cathepsins (Verdoes et al., 2013). Cells were lysed in citrate buffer (pH 5.5) to provide optimal conditions for cathepsin activation, and the probe was added • at 1 µM for 20 minutes • at various concentrations (0 µM, 0.01 µM, 0.05 µM, 0.1 µM, 0.5 µM or 1 µM) for 20 minutes; or • at 1 µM for varying times (0, 1, 2, 5, 10, 20, and 30 minutes).
Then the lysates were resolved by SDS-PAGE and the gel scanned for sCy5 fluorescence using a flatbed laser scanner.
The labeling profile of sCy5-Val-SY was compared to that of BMV109, the pan-cathepsin probe, by repeating the above experiment using BMV109 as the probe added at 1 µM for 20 minutes.
In Example 6, a small library of sulfoxonium ylide probes with varying amino acids in the P1 position as prepared in accordance with Example 1 was tested in RAW264.7 lysates, and compared to BMV109. Each probe was added with increasing probe concentrations of 0.01 µM, 0.05 µM, 0.1 µM, 0.5 µM, 1 µM and 5 µM for 20 minutes).

T1 sequence (Q9WUU7 64-306): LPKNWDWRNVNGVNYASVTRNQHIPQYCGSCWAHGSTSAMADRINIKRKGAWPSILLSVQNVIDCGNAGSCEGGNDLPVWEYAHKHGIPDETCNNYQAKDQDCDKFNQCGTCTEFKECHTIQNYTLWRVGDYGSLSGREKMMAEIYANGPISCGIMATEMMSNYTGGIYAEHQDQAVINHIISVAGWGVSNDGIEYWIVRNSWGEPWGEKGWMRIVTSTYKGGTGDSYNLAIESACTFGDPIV

CCCC[C@H](NC(=O)CCCCCN1/C(=C/C=C/C=C/C2=[N+](CC)c3ccc(S(=O)(=O)[O-])cc3C2(C)C)C(C)(C)c2cc(S(=O)(=O)O)ccc21)C(=O)C=S(C)(C)=O [sCy5-Nle-SY]
potency and specificity of labeling in kidney lysates (cathepsin X [1]): the most potency and specificity for cathepsin X | cathepsins labeled in live RAW264.7 cells (cathepsin X [2]): labeled cathepsin X and S to similar extents and with similar potency | sCy5 fluorescence in kidney cryosections (cathepsin X [3]; after in vivo probe administration): Strong punctate sCy5 fluorescence was observed | overlap of sCy5 signal with cathepsin X immunoreactivity (cathepsin X [3]; kidney cryosections after in vivo probe administration): signal largely overlapped with immunoreactive cathepsin X | potency of labeling in RAW264.7 lysates (cathepsin X [4]): the most potent
